A short description of series [1]: mn = molality of the nth substance listed, in mol/kg. The settings on record: 298.15 K, 101.3 kPa, Liquid, Vibrating tube method.
Series [2] can be described thus: wn = mass fraction of the nth substance listed. As to conditions: 298.15 K, 101.3 kPa, Liquid, Vibrating tube method.

Numbers after ± are expanded uncertainties.

By mass density is commonly meant the mass of a sample divided by its volume. Regarding `OCC1CO1` (stereo not drawn) [2,3-epoxy-1-propanol] + O, in series [1] (m1 = 0.4019), the mass density was 1001.85 ± 0.44 kg/m3.

Take `OC[C@@H]1CO1` [R-(+)-glycidol] + O: the mass density in series [1] (m1 = 0.402) came out at 1002.68 ± 0.27 kg/m3.

With `OC[C@H]1CO1` [S-(-)-glycidol] + O, the mass density in series [1] (m1 = 0.4554) was found to be 1002.79 ± 0.27 kg/m3.

Turning to `CN(C)C=O` [dimethylformamide] + O, the mass density in series [2] (w1 = 0.05) came to 996.463 ± 0.11 kg/m3; in series [2] (w1 = 0.1001) it was 996.232 ± 0.11 kg/m3; in series [2] (w1 = 0.15), 996.24 ± 0.11 kg/m3; in series [2] (w1 = 0.2001), 996.402 ± 0.11 kg/m3; in series [2] (w1 = 0.2502), 996.649 ± 0.11 kg/m3.

The values are drawn from the NIST ThermoML archive (doi:10.1016/j.jct.2015.03.012).
